{"source": "patent US20120141539A1", "about": "“METHODS FOR MODULATING TOLL-LIKE RECEPTOR MEDIATED ACTIVATION OF CELLS OF THE INNATE SYSTEM BY MODULATING XBP-1 ACTIVITY” (PRESIDENT AND FELLOWS OF HARVARD COLLEGE, priority 2009, published 2012)", "key": {"[1]": {"tested_on": "XBP-1 mRNA splicing", "experiment": "XBP-1 splicing assay in J774 macrophages", "assay_type": "cell-based, mouse", "settings": "for effect of inhibitor on LPS-induced XBP-1 splicing: LPS stimulation"}, "[2]": {"tested_on": "IFNβ", "settings": "macrophage cell line; J. Smith et al. 2008; cited from earlier work"}, "[3]": {"tested_on": "XBP-1 mRNA splicing", "experiment": "XBP-1 splicing in primary macrophages", "assay_type": "cell-based, mouse"}, "[4]": {"tested_on": "IRE1α", "experiment": "IRE1α activation (phosphorylation status, immunoblot) in J774 macrophages", "assay_type": "cell-based, mouse", "settings": "J774 macrophages stimulated with the substance", "description": "(§1) Total cell extracts were loaded on SDS-PAGE for separation and transferred to PDVF membranes. For Western blot the following antibodies were used: anti-XBP-1s (Biolegend), anti-phospho PERK, IRE1 and phospho-JNK (Cell Signaling), ATF4, HSP90, IkappaBβ and CHOP (Santa Cruz Biotechnology), anti-ATF6α and anti proIL-1β.\n(§2) The ability of TLRs to activate the three branches of the ER stress response was tested. J774 macrophages were stimulated with the TLR4 and TLR2 agonists, LPS and Pam3CSK4, and IRE1α, PERK and ATF6 activation were analyzed. ATF6 activation was tested by monitoring the liberation of its cleaved fragment, and PERK and IRE1α activation by examining their phosphorylation status. […] To further examine the effects of TLR signaling on the classical. ER stress response, cells were stimulated with tunicamycin (TM), a potent pharmacologic ER-stress inducer, in the presence or absence of LPS. […] Therefore, TLRs trigger a biased ER-stress response by activating IRE1 while inhibiting the PERK and ATF6 pathways."}, "[5]": {"tested_on": "ATF6", "experiment": "ATF6 activation (liberation of cleaved fragment) in J774 macrophages", "assay_type": "cell-based, mouse", "settings": "for activation of ATF6 (cleaved fragment): J774 macrophages stimulated with the substance", "description": "as §1, §2"}, "[6]": {"tested_on": "PERK", "experiment": "PERK activation (phosphorylation status) in J774 macrophages", "assay_type": "cell-based, mouse", "settings": "J774 macrophages stimulated with the substance", "description": "as §1, §2"}, "[7]": {"tested_on": "CHOP, BiP, Erdj4 and PDI expression", "experiment": "ER-stress target gene expression (quantitative RT-PCR) in J774 macrophages", "assay_type": "cell-based, mouse", "settings": "for induction of the classic ER stress downstream target genes CHOP and BiP: J774 macrophages stimulated with the substance", "description": "(§3) Total RNA was prepared using Trizol (Invitrogen) and cDNA synthesis with High capacity cDNA Reverse transcription kit purchased from Applied Biosystems. Quantitative RT-PCR was performed employing SYBR green fluorescent reagent on a Mx3005P® QPCR System from Strategene. The relative amounts of mRNA were calculated from the values of comparative threshold cycle by using β-actin as control.\nas §2"}, "[8]": {"tested_on": "CHOP, PDI, WSF1 expression", "experiment": "ER-stress related gene expression in primary macrophages", "assay_type": "cell-based, mouse"}, "[9]": {"tested_on": "IL-6", "experiment": "IL-6 production by LPS stimulated macrophages under ER stress", "assay_type": "cell-based, mouse"}, "[10]": {"tested_on": "ISG15", "experiment": "ISG15 production by LPS stimulated macrophages under ER stress", "assay_type": "cell-based, mouse", "settings": "cells simultaneously ER-stressed with TM", "description": "as §3\nTherefore, it was determined whether augmenting this pathway through pharmacologic induction of an ER stress response would enhance the natural response to microbial products. […] Importantly, this finding was confirmed in primary WT and XBP-1Δ macrophages that were left untreated or pre-treated for 12 h with a low dose of TM and then stimulated with LPS for 3 h."}, "[11]": {"settings": "J774 macrophages, co-treatment with TM"}}}
{"molecule": "c1ccc2c(c1)[I+]c1ccccc1-2", "note": "[DPI, diphenyleneiodonium chloride]", "values": [{"measurement": "effect of inhibitor on LPS-induced XBP-1 splicing", "setting": "[1]", "result": "abolished"}]}
{"molecule": "COc1cc(C(C)=O)ccc1O", "note": "[apocynin]", "values": [{"measurement": "effect of inhibitor on LPS-induced XBP-1 splicing", "setting": "[1]", "result": "abolished"}]}
{"molecule": "C/C=C(/C)C(=O)O[C@H]1C(C)=C2[C@H]([C@@H]1OC(=O)CCCCCCC)[C@@](C)(OC(C)=O)C[C@H](OC(=O)CCC)[C@@]1(O)[C@H]2OC(=O)[C@@]1(C)O", "note": "[thapsigargin]", "values": [{"measurement": "IFNβ production upon stimulation with LPS", "setting": "[2]", "result": "increased IFNβ production"}]}
{"molecule": "FSL1", "values": [{"measurement": "XBP-1 splicing in TLR2 deficient macrophages", "setting": "[3]", "result": "did not activate XBP-1 splicing"}]}
{"molecule": "Pam3CSK4", "values": [{"measurement": "activation of IRE1α (slower migrating phosphorylated species)", "setting": "[4]", "result": "Clear activation"}, {"measurement": "activation of ATF6 (cleaved fragment)", "setting": "[5]", "result": "neither activation of ATF6 or PERK"}, {"measurement": "activation of PERK (phosphorylation status)", "setting": "[6]", "result": "neither activation of ATF6 or PERK"}, {"measurement": "induction of the classic ER stress downstream target genes CHOP and BiP", "setting": "[7]", "result": "nor induction of the classic ER stress downstream target genes, CHOP and BiP, was observed"}, {"measurement": "XBP-1 splicing in TLR2 deficient macrophages", "setting": "[3]", "result": "did not activate XBP-1 splicing"}, {"measurement": "TLR2 dampening of the ER-stress response: dependence on MyD88", "setting": "[8]; primary macrophages from MyD88 deficient mice", "result": "MyD88 dependent"}]}
{"molecule": "lipopolysaccharide [LPS]", "values": [{"measurement": "activation of IRE1α (slower migrating phosphorylated species)", "setting": "[4]", "result": "Clear activation"}, {"measurement": "activation of ATF6 (cleaved fragment)", "setting": "[5]", "result": "neither activation of ATF6 or PERK"}, {"measurement": "effect of co-treatment on proteolytic processing of ATF6α by TM", "setting": "[5]; [11]", "result": "dramatically repressed"}, {"measurement": "activation of PERK (phosphorylation status)", "setting": "[6]", "result": "neither activation of ATF6 or PERK"}, {"measurement": "expression of the XBP-1 target genes Erdj4 or PDI", "setting": "[7]; J774 macrophages", "result": "did not induce"}, {"measurement": "induction of the classic ER stress downstream target genes CHOP and BiP", "setting": "[7]", "result": "nor induction of the classic ER stress downstream target genes, CHOP and BiP, was observed"}, {"measurement": "effect of co-treatment on TM induction of mRNAs including CHOP, PDI and Erdj4", "setting": "[7]; [11]", "result": "dramatically repressed"}, {"measurement": "classic ER-stress response as measured by CHOP, BiP, Erdj4 and PDI expression", "setting": "[7]; J774 macrophages, experiment with or without TM", "result": "did not induce a classic ER-stress response"}, {"measurement": "splicing of XBP-1 mRNA and production of XBP-1s protein", "setting": "[1]; J774 macrophages, time after stimulation", "result": "detected as early as 3 hours"}, {"measurement": "activation of XBP-1 in TLR4 mutant macrophages", "setting": "[3]; macrophages from mice carrying a mutation in the signaling domain of TLR4", "result": "did not activate XBP-1"}, {"measurement": "effect on TM-induced XBP-1 splicing", "setting": "[3]; macrophages, TM plus LPS", "result": "increased"}, {"measurement": "activation of XBP-1 in wild type primary macrophages", "setting": "[3]; primary macrophages from wild type (WT) mice", "result": "observed"}, {"measurement": "induction of classic ER-stress related genes such as CHOP or PDI", "setting": "[8]; XBP-1Δ macrophages or WT macrophages", "result": "no induction"}]}
{"molecule": "tunicamycin [TM]", "values": [{"measurement": "activation of IRE1α (slower migrating phosphorylated species)", "setting": "[4]", "result": "induced activation of all three branches"}, {"measurement": "activation of ATF6 (cleaved fragment)", "setting": "[5]", "result": "induced activation of all three branches"}, {"measurement": "activation of PERK (phosphorylation status)", "setting": "[6]", "result": "induced activation of all three branches"}, {"measurement": "induction of PDI and WSF1 in XBP-1Δ macrophages", "setting": "[8]; XBP-1Δ macrophages versus WT", "result": "reduced"}, {"measurement": "amount of IL-6 produced by LPS stimulated macrophages", "setting": "[9]; cells simultaneously ER-stressed with TM", "result": "dramatically and synergistically increased"}, {"measurement": "IL-6 production in primary WT macrophages", "setting": "[9]; pre-treated 12 h with low dose of TM, then LPS 3 h", "result": "augmented IL-6 production"}, {"measurement": "amount of ISG15 produced by LPS stimulated macrophages", "setting": "[10]", "result": "dramatically and synergistically increased"}]}
